In brackets after ≈: the same amount, converted by molar mass.
Tests used:
[1] = tested on: HCT116; test: MTT antitumour (cytotoxicity) assay, HCT116; type: cell-based; conditions: Homo sapiens, HCT-116, HCT116 cell line, 50% inhibition of tumour cell proliferation, read-out: In vitro cytotoxicity IC50
Method: (§1) The designed compounds were evaluated for their in vitro antitumour effect using the standard MTT method against two human tumour cell lines, namely, HepG2 and HCT116[45–48]. The quantitative evaluation of the cytotoxicity was performed using tetrazolium salt MTT (3-(4,5-dimethyl-2-thiazolyl)-2,5-diphenyl-2 H-tetrazolium bromide) assay. The cytotoxic activity was expressed as the concentration of the compound that caused 50% growth inhibition (IC50, mean ± SEM) compared with the growth of untreated cells.

[2] = tested on: HepG2; test: MTT antitumour (cytotoxicity) assay, HepG2; type: cell-based; conditions: Homo sapiens, HepG2, HepG2 cell line, 50% inhibition of tumour cell proliferation, read-out: In vitro cytotoxicity IC50
Method: as §1

[3] = molecular target: EGFR kinase (Homo sapiens, UniProt P00533); test: ELISA-based EGFR-TK kinase inhibition assay; type: biochemical; conditions: n = 3, read-out: Enzymatic IC50 toward EGFR kinase
Chain of EGFR kinase (P00533 25-1210): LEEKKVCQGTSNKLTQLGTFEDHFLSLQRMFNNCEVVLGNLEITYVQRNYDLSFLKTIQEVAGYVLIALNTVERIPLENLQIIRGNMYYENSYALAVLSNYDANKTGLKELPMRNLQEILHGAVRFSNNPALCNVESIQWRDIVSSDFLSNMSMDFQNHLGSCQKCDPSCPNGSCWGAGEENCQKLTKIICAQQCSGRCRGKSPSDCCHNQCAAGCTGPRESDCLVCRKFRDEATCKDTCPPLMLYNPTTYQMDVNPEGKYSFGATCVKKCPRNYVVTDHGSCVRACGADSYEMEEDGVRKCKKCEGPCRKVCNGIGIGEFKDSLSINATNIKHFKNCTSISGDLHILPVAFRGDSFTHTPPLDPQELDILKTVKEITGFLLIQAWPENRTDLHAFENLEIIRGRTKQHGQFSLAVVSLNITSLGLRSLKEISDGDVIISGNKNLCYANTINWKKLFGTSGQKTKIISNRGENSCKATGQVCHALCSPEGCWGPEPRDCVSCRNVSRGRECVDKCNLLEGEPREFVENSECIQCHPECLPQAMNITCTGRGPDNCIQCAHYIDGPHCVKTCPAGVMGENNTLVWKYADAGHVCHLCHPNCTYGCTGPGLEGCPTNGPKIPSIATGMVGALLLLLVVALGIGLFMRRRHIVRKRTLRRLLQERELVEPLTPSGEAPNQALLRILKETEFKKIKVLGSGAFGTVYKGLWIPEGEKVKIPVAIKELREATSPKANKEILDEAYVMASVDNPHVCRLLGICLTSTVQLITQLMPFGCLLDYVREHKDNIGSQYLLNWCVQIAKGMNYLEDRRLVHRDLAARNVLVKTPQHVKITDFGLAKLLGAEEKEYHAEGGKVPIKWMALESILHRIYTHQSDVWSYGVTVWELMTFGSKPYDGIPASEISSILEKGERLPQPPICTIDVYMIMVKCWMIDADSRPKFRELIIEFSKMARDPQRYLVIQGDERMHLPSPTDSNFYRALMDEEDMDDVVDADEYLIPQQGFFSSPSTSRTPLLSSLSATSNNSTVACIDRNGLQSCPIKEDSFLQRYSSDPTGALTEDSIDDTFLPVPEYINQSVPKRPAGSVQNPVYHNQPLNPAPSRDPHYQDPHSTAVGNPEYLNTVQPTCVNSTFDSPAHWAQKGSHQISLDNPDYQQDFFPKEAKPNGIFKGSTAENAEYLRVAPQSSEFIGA
Method: EGFR kinase activity was determined via enzyme-linked immunosorbent assay (ELISA) in 96-well plates. The EGFR kinase activity for each compound were expressed as IC50 values. Data were represented as mean ± SD from three independent experiments, and differences between groups were considered statistically significant at p < .05.
The mechanism of antitumour activity of the target compounds was studied using ELISA-based EGFR-TK assay.

`CN(C)C/C=C/C(=O)Nc1cc2c(Nc3ccc(F)c(Cl)c3)ncnc2cc1O[C@H]1CCOC1` [Afatinib, afatinib, reference compound] gave an IC50 [1] of 11.4 ± 1.26 µg/mL (≈ 23.5 µM) and an IC50 [2] of 5.4 ± 0.25 µg/mL (≈ 11.1 µM).

`CN(C)c1ccc(/C=C/c2cc(C(=O)O)c3cc(Br)ccc3n2)cc1` [Compound 3a] gave an IC50 [3] of 2.23 µM, an IC50 [1] of 9 ± 0.35 µg/mL (≈ 22.7 µM) and an IC50 [2] of 9.8 ± 0.2 µg/mL (≈ 24.7 µM).

With `Cc1ccc2nc(C=Cc3ccc(N(C)C)cc3)cc(C(=O)O)c2c1` [Compound 3b, 2–(4-(Dimethylamino)styryl)-6-methylquinoline-4-carboxylic acid] the IC50 [3] was 8.01 µM, the melting point was 275 °C and the IC50 [1] was 14.8 ± 0.89 µg/mL (≈ 44.5 µM). For the same molecule, the IC50 [2] was 17.2 ± 1.04 µg/mL (≈ 51.7 µM).

`CN(C)c1ccc(C=Cc2cc(-c3nnc(N)s3)c3cc(Br)ccc3n2)cc1` [Compound 4a, 5-(6-Bromo-2–(4-(dimethylamino)styryl)quinolin-4-yl)-1,3,4-thiadiazol-2-amine] showed an IC50 [3] of 8.78 µM, a melting point of 223 °C and an IC50 [1] of 14.2 ± 0.67 µg/mL (≈ 31.4 µM). For the same molecule, the IC50 [2] was 9 ± 0.19 µg/mL (≈ 19.9 µM).

`Cc1ccc2nc(C=Cc3ccc(N(C)C)cc3)cc(-c3nnc(N)s3)c2c1` [Compound 4b, 5-(2-(4-(Dimethylamino)styryl)-6-methylquinolin-4-yl)-1,3,4-thiadiazol-2-amine] showed an IC50 [3] of 1.11 µM, a melting point of 226 °C and an IC50 [1] of 8.8 ± 0.26 µg/mL (≈ 22.7 µM). The IC50 [2] was 7.7 ± 0.15 µg/mL (≈ 19.9 µM).

Work on `O=c1[nH]cc(F)c(=O)[nH]1` [Compound 5-FU, 5-fluorouracil, reference compound] yielded an IC50 [1] of 5.3 ± 0.32 µg/mL (≈ 40.7 µM) and an IC50 [2] of 7.9 ± 0.17 µg/mL (≈ 60.7 µM).

`CN(C)c1ccc(C=Cc2cc(C(=O)Oc3ccc(C=O)cc3)c3cc(Br)ccc3n2)cc1` [Compound 6a, 4-Formylphenyl 6-bromo-2-(4-(dimethylamino)styryl)quinoline-4-carboxylate] gave a melting point of 242 °C, an IC50 [1] of 96.6 ± 5.4 µg/mL (≈ 193 µM) and an IC50 [2] of 82.9 ± 4.64 µg/mL (≈ 165 µM).

For `Cc1ccc2nc(C=Cc3ccc(N(C)C)cc3)cc(C(=O)Oc3ccc(C=O)cc3)c2c1` [Compound 6b, 4-Formylphenyl 2-(4-(dimethylamino)styryl)-6-methylquinoline-4-carboxylate], the melting point was 248 °C, the IC50 [1] was over 100 µg/mL and the IC50 [2] was over 100 µg/mL.

Work on `CN(C)c1ccc(C=Cc2cc(C(=O)NNc3ccccc3)c3cc(Br)ccc3n2)cc1` [Compound 7a, 6-Bromo-2-(4-(dimethylamino)styryl)-N'-phenylquinoline-4-carbohydrazide] yielded a melting point of 232 °C, an IC50 [1] of 49.7 ± 3 µg/mL (≈ 102 µM) and an IC50 [2] of 46.1 ± 2.81 µg/mL (≈ 94.6 µM).

In the case of `Cc1ccc2nc(C=Cc3ccc(N(C)C)cc3)cc(C(=O)NNc3ccccc3)c2c1` [Compound 7b, 2-(4-(Dimethylamino)styryl)-6-methyl-N'-phenylquinoline-4-carbohydrazide], the melting point is reported as 228 °C, the IC50 [1] is reported as 61.4 ± 3.76 µg/mL (≈ 145 µM) and the IC50 [2] is reported as 72.8 ± 3.82 µg/mL (≈ 172 µM).

Molecule `CCOC(=O)C(C#N)C(=O)c1cc(C=Cc2ccc(N(C)C)cc2)nc2ccc(Br)cc12` (centres unmarked) [Compound 8a, Ethyl 3-(6-bromo-2-(4-(dimethylamino)styryl)quinolin-4-yl)-2-cyano-3-oxopropanoate] has an IC50 [3] of 16 µM, a melting point of over 300 °C and an IC50 [1] of 16 ± 0.88 µg/mL (≈ 32.5 µM). It also gave an IC50 [2] of 26.2 ± 1.79 µg/mL (≈ 53.2 µM).

Molecule `CCOC(=O)C(C#N)C(=O)c1cc(C=Cc2ccc(N(C)C)cc2)nc2ccc(C)cc12` (centres unmarked) [Compound 8b, Ethyl 2-cyano-3-(2-(4-(dimethylamino)styryl)-6-methylquinolin-4-yl)-3-oxopropanoate] has a melting point of over 300 °C, an IC50 [1] of 52.6 ± 3.92 µg/mL (≈ 123 µM) and an IC50 [2] of 43.7 ± 2.66 µg/mL (≈ 102 µM).

`CC(=O)C(C(C)=O)C(=O)c1cc(C=Cc2ccc(N(C)C)cc2)nc2ccc(Br)cc12` [Compound 9a, 3-(6-Bromo-2-(4-(dimethylamino)styryl)quinoline-4-carbonyl)pentane-2,4-dione] gave a melting point of over 300 °C, an IC50 [1] of 57.3 ± 3.07 µg/mL (≈ 120 µM) and an IC50 [2] of 65.4 ± 3.18 µg/mL (≈ 136 µM).

`CC(=O)C(C(C)=O)C(=O)c1cc(C=Cc2ccc(N(C)C)cc2)nc2ccc(C)cc12` [Compound 9b, 3-(2-(4-(Dimethylamino)styryl)-6-methylquinoline-4-carbonyl)pentane-2,4-dione] gave a melting point of over 300 °C, an IC50 [1] of 93.1 ± 5.64 µg/mL (≈ 225 µM) and an IC50 [2] of over 100 µg/mL.

— PMC7012010, “Synthesis and biological evaluation of 2-styrylquinolines as antitumour agents and EGFR kinase inhibitors: molecular docking study” (Journal of Enzyme Inhibition and Medicinal Chemistry, 2017)
